Earlier results as cited in US11682473B2, “Skin permeability prediction” (priority 2016, dated 2023).
Like-named read-outs stand apart in the source and are kept apart here.

Settings: for log KPexp: uncorrected literature value (permeabilities in cm/h); for log Kp303K: experimental literature values (in vitro diffusion cells), averaged over sources, temperature-corrected to 303 K; for log KP, Experimental: Experimental row of Table 16 (in vitro diffusion cells)

Row | SMILES | log KPexp (Texp 25 °C) | log KPexp (Texp 31 °C) | log Kp303K [cm/h] | log KP, Experimental [cm/h] | log KPexp (Texp 37 °C)
1 | c1ccccc1 [Benzene, benzene] | −0.80 | −0.95 | −0.8 |  | 
2 | COc1ccc2c3c1O[C@H]1[C@@H](O)C=C[C@H]4[C@@H](C2)N(C)CC[C@@]341 [Codeine, codeine] |  |  | −4.6 | −4.6 | −4.6
3 | CN1CCCC1c1cccnc1 (stereo not shown) [Nicotine, nicotine] | −1.71 |  | −1.8 | −1.8 | −2.48
